The source of these data is US12599597B2, “Substituted N-benzhydrylacetamide inhibitors of jumanji domain histone demethylases for the treatment of cancer” (University of Kentucky Research Foundation, priority 2020, dated 2026).

For orientation: inhibition means the percentage by which the read-out fell short of the control. Low readings indicate little suppression, high ones strong suppression. One may read the % Inhibition as the change of the read-out against control, counted positive when it falls. A high value points to a strong effect.

One test concerns Wnt signaling. As to the kind of experiment: TOPFlash (Wnt) reporter assay in stable HEK293T cell line. The class given is cell-based. The conditions noted are these: for Percent inhibition at 1 μM: Table 3, Wnt reporter assay at 1 μM. The text has this:
Wnt signaling is a key target for multiple human cancers, including but not limited to colon cancer, liver cancer, and lung cancer. To identify novel Wnt regulators by high throughput screening, a stable HEK293T cell line containing the TOPFlash reporter was established. Since β-catenin is often activated by mutations in the Wnt pathway, it is important to inhibit Wnt signaling downstream of β-catenin activity. Therefore, the screen was specifically designed to identify Wnt inhibitors that target events downstream of β-catenin. The Wnt signaling was activated by treating cells with lithium chloride to inhibit GSK3 and to stabilize β-catenin, mimicking the constitutively active Wnt signaling in cancer cells. Through this screen, a family of novel Wnt inhibitors that inhibited Wnt signaling at a 0.5-10 μM concentrations (Table 1) was identified.
After 6 h, the cells were treated with 25 mM LiCl to activate Wnt signaling. The inhibition ratio of each compound was determined (Table 1).
For the SAR studies, 58B1 (VMS-7-133) was re-synthesized. Additionally, SD70, a commercial KDM4 inhibitor, was both purchased and re-synthesized (VMS-7-175). […] VMS-7-195 is a biotinylated analog of 58B1. […] Specific KDM inhibitors may be used to target specific KDMs, such as KDM3A, which is highly expressed in many human cancers.
Identification of a CBA-1 as a novel Wnt inhibitor. The present inventors routinely use TOPFlash reporter assay for Wnt inhibitor screening. To mimic the constitutively active Wnt signaling found in CRC cells, Wnt signaling was activated by inhibiting GSK3 and stabilizing β-catenin. From screening in house small-molecule libraries, CBA-1 (FIG. 4) was identified that inhibited Wnt signaling in TOPFlash reporter assay. To validate the screening results, CBA-1 was tested in CRC cells.

For the next test, the target named is Jarid1B (KDM5B) (Homo sapiens, UniProt Q9UGL1). As to the kind of experiment: Histone demethylase assay, purified enzyme panel. It counts as biochemical. The conditions noted are these: Reference inhibitor. The text has this:
(§1) Histone Demethylase Assay
(§2) To further examine the effects of 58B1 on histone demethylase, we screened a panel of purified histone demethylases was screened.

The next test concerns the target UTX (KDM6A) (Homo sapiens, UniProt O15550). As to the kind of experiment: Histone demethylase assay, purified enzyme panel. The conditions noted are these: Reference inhibitor. It counts as biochemical.
From the text: as §1, §2

In the next test the target is KDM3B (Homo sapiens, UniProt Q7LBC6). As to the kind of experiment: KDM3B enzymatic activity. The class given is biochemical. The following applies: FIG. 12D. From the text: Other KDM3 members as CBA-1 targets. Inhibition of KDM3A by CBA-1 increased H3K9Me^2 and inhibited Wnt signaling; however, other KDM3 members may also regulate H3K9 methylation. For example, both KDM3B and KDM3C (JMJD1C) regulated Wnt signaling. Given the high similarity of their structures (FIG. 10A), particularly the JmjC domains, it is believed that CBA-1 would inhibit KDM3B and KDM3C as well. […] CBA-1 coordinated with Mn^2+ at a longer distance in KDM3B (3.9 Å) than the distance in KDM3A (2.8 Å) (FIGS. 8B and 10B). This could be one of the reasons that CBA-1 inhibited KDM3A better than KDM3B.
Sequence of KDM3B (Q7LBC6 whole entry, the tested form may be a part): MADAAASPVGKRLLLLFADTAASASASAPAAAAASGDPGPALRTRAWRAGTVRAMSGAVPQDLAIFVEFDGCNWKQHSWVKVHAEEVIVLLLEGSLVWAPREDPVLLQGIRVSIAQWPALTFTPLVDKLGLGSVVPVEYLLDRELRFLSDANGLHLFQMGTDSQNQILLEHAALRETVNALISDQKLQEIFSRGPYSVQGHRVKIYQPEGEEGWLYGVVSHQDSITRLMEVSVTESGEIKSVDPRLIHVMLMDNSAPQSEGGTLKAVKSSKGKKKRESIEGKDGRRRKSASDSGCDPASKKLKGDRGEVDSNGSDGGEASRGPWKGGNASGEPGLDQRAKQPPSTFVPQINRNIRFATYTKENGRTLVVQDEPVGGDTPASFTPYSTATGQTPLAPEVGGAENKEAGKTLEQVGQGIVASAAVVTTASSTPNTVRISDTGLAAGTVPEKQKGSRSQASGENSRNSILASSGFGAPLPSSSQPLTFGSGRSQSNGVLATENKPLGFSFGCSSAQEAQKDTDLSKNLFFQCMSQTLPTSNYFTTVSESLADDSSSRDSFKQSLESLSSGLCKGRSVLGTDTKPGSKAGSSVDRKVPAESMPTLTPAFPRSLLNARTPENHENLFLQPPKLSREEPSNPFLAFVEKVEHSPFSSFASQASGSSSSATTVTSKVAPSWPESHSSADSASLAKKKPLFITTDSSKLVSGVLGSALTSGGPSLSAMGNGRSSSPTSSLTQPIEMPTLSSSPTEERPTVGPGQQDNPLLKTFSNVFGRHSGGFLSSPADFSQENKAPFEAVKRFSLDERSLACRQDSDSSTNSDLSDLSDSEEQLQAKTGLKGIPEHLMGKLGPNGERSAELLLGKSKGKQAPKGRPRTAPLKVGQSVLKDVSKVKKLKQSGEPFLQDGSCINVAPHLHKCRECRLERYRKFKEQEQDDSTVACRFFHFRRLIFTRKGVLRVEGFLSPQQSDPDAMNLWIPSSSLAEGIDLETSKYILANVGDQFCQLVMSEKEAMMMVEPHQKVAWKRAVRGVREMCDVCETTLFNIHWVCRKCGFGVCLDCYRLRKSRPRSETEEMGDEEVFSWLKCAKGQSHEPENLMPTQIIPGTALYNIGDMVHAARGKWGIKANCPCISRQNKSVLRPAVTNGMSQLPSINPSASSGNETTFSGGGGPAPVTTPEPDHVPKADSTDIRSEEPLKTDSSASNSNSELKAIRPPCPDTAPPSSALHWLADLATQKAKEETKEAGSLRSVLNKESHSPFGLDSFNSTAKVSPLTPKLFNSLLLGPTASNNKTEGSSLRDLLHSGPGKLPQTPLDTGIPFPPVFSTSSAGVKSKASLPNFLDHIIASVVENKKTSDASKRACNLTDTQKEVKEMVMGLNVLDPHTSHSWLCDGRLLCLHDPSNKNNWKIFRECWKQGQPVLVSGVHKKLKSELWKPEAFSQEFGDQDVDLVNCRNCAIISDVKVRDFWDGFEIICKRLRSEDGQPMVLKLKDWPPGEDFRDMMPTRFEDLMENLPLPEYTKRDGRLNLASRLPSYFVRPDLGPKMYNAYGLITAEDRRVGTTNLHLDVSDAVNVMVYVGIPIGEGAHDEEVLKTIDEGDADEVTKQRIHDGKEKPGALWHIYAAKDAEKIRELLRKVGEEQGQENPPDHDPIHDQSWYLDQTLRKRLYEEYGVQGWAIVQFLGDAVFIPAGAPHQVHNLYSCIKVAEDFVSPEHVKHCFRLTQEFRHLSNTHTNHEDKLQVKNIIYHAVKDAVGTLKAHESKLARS
(§3) Repurposing drugs as CBA-1 analogs and KDM3 inhibitors. CBA-1 is a specific and potent KDM3A inhibitor. As backup candidates, two approved drugs were identified as CBA-1 analogs and KDM3A inhibitors. Based on the docking study (FIGS. 8A-B), the N and OH groups (red color in FIG. 12A) are critical in binding the Mn^2+ in KDM3A. […] A virtual screening was performed and several antibiotics that have similar structures were identified. Two of these antibiotics, clioquinol and nitroxoline (FIG. 12B), indeed inhibited the enzymatic activities of KDM3 (FIGS. 12C and D). These two drugs were tested in LS174T tumor xenograft model in SCID mice. […] Nitroxoline has been used in Europe for over 50 years as an antibiotic. It has anticancer effects, but the mechanism remains unclear.

For another test, the system named is LS174T CRC xenografts. As to the kind of experiment: LS174T tumor xenograft model in SCID mice. It counts as in vivo. The conditions noted are these: 50 mg/kg, p.o. The protocol:
FIGS. 12A-E show images and graphs illustrating CBA-1 analogs from antibiotics. (A) Interaction of CBA-1 with Mn^2+. (B) Clioquinol (X=Cl; Y=I) and nitroxoline. (C-D) Inhibition of (C) KDM3A and (D) KDM3B enzymatic activities. (E) CBA-1 analogs (50 mg/kg, p.o.) inhibited LS174T CRC xenografts in SCID mice.
as §3

The next test addresses T1, JMJD1A (KDM3A) (Homo sapiens, UniProt Q9Y4C1).
T1 sequence (Q9Y4C1 1-1321): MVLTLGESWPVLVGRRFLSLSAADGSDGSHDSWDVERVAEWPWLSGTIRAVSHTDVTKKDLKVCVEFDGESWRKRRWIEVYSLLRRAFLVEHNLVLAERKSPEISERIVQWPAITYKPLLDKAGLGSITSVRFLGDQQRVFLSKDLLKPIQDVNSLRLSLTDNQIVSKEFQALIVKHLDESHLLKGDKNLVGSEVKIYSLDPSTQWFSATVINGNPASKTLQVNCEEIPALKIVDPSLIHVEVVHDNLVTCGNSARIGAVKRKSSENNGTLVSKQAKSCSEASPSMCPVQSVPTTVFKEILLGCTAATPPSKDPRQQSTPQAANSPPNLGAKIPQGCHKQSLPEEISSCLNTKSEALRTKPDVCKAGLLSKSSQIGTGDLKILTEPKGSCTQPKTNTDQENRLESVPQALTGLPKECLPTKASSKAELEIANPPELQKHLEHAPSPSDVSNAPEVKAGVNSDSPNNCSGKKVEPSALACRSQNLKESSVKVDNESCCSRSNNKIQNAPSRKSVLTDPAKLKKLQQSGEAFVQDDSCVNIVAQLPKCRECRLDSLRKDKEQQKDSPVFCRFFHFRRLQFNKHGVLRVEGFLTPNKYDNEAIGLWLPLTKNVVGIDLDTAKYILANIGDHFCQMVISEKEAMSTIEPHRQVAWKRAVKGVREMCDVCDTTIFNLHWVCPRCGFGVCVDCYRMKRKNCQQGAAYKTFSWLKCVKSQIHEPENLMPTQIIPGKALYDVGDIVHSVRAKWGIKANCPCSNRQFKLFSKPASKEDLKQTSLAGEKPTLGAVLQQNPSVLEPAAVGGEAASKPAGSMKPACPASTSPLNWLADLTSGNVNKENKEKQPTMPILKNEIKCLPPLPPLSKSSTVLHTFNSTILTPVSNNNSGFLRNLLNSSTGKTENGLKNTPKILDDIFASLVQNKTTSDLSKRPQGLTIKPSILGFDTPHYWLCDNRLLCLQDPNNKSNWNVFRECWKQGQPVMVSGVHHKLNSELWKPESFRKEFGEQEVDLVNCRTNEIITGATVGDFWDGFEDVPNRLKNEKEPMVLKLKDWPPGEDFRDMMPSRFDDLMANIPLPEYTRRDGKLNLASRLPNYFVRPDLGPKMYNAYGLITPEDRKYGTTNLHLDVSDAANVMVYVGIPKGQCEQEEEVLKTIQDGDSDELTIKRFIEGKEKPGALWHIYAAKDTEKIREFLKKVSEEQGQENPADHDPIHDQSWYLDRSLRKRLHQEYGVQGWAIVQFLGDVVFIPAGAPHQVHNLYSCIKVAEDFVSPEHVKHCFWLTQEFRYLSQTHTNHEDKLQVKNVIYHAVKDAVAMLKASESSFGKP
As to the kind of experiment: Histone demethylase assay / KDM3A enzymatic activity in vitro. The class given is biochemical. The following applies: for enzymatic activity of KDM3A: FIG. 12C.
From the text: as §1, §2
Identification of KDM3A as a target of CBA-1. KDM3A regulated H3K9Me^2 and underwent significant upregulation in CRC. To test if CBA-1 targeted KDM3A, a biotinylated analog CBA-B2 (FIG. 7A) was synthesized. […] Knocking-down KDM3A by shRNA inhibited cell proliferation (FIG. 7D) and Wnt target gene expression in LS174T CRC cells (FIG. 7E).
as §3

Setting [1] is: Homo sapiens, HEK-293T, Table 1, HEK293T TOPFlash, 25 mM LiCl after 6 h.

Sequence of UTX (KDM6A) (O15550 whole entry): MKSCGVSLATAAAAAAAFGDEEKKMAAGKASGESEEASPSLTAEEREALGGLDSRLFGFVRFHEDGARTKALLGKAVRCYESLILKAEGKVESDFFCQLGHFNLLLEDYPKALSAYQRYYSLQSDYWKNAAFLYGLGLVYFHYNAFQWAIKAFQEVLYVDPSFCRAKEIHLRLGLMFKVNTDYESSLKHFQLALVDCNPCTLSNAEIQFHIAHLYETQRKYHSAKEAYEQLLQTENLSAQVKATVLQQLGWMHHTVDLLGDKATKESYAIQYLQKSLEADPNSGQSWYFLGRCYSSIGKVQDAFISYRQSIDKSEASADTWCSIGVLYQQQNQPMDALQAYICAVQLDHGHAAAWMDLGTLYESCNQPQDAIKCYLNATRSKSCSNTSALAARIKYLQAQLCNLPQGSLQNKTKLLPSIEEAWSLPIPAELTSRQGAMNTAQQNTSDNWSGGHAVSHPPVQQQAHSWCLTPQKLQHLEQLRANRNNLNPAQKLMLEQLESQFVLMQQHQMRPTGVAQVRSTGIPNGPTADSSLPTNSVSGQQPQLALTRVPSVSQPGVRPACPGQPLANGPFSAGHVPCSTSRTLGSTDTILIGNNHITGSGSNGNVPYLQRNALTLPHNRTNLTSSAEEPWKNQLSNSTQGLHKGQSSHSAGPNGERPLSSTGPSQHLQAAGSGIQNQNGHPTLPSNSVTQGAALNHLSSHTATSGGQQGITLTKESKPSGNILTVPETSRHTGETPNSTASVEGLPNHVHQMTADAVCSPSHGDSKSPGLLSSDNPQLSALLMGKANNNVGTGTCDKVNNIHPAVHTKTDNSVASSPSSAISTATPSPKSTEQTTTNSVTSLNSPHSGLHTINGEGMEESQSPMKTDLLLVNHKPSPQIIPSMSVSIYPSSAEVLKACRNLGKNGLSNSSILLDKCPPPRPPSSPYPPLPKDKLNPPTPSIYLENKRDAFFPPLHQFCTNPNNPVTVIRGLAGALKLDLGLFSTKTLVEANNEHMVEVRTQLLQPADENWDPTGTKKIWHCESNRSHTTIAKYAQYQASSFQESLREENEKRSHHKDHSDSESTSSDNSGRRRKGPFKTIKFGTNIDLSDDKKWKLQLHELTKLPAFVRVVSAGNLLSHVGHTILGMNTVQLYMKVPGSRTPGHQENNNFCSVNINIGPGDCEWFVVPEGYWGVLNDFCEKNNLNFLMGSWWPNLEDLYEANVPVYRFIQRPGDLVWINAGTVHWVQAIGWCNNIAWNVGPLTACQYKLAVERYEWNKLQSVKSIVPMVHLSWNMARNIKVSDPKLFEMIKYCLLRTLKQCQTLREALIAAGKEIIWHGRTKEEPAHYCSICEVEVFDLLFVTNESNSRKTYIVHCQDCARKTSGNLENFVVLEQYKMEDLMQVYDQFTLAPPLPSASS
Sequence of Jarid1B (KDM5B) (Q9UGL1 whole entry): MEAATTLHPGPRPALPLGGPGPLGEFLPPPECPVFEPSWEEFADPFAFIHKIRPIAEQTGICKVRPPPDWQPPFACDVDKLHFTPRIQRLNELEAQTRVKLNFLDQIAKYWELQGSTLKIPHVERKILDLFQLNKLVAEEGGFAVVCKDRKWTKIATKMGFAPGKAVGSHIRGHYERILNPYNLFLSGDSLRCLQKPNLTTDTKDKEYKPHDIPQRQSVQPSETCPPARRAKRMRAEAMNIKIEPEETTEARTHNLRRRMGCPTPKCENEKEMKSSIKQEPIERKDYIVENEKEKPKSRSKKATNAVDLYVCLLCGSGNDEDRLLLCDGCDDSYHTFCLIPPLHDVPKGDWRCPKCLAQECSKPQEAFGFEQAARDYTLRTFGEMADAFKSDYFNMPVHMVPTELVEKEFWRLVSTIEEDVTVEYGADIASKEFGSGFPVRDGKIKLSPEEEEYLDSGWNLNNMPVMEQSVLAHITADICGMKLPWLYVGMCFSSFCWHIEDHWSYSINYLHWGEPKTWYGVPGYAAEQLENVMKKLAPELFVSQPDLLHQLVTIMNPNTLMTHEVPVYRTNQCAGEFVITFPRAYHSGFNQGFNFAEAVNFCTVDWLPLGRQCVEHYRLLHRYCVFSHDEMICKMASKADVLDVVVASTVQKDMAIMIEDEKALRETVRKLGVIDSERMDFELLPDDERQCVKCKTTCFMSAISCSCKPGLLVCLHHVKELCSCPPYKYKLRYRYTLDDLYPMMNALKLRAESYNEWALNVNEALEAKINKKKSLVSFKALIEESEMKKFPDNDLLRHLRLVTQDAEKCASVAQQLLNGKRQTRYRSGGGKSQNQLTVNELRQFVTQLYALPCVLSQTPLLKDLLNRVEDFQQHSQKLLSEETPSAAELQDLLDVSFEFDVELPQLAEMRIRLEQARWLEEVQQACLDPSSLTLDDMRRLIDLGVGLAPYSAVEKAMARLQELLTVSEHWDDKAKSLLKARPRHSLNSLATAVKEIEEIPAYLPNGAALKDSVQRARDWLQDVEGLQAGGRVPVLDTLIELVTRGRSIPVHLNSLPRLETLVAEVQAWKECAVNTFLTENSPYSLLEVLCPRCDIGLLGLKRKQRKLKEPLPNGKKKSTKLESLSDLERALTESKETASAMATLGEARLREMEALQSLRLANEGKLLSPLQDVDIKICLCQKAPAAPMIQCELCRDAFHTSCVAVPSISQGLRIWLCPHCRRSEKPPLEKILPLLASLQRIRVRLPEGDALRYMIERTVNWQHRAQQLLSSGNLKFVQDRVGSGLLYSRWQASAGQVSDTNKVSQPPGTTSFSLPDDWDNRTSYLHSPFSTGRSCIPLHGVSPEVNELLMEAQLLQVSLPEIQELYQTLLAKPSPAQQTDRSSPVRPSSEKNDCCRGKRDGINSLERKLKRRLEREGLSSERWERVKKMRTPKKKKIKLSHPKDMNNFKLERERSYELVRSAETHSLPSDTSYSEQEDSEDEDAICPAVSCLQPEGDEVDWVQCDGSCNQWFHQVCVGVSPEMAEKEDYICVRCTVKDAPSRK

Consider `CC(=O)NC(c1ccc(Cl)cc1)c1cc([N+](=O)[O-])c2cccnc2c1O` (centres unmarked) [58H8], for which at 2.5 µM the inhibition in the test on Wnt signaling (Homo sapiens, HEK-293T, Table 1, HEK293T TOPFlash, 2.5 µM of each compound, 25 mM LiCl after 6 h) was 80%.

On to `CCCC(=O)NC(c1ccc(N2CCC(C(=O)OCC)CC2)cc1)c1cc(Cl)c2cccnc2c1O` (centres unmarked) [VMS-7-183], for which, in the test on Wnt signaling, the “Percent inhibition at 1 μM” value was 85.6%.

As for `CCCC(=O)NC(c1ccc(N(C)C)cc1)c1cc(Cl)c2cccnc2c1O` (centres unmarked) [58F8], in the test with Wnt signaling (setting [1]), the inhibition is 88%.

In the case of `O=C(O)CCNc1cc(N2CCc3ccccc3CC2)nc(-c2ccccn2)n1` [GSK-J1, reference compound], the “% Inhibition” value at Jarid1B (KDM5B) and at UTX (KDM6A) was 100% throughout.

With `CCC(=O)NC(c1ccco1)c1cc(Cl)c2cccnc2c1O` (centres unmarked) [58B6], the inhibition in the test on Wnt signaling (setting [1]) came to 73%.

In the case of `O=[N+]([O-])c1ccc(O)c2ncccc12` [nitroxoline], at KDM3B, the “enzymatic activity of KDM3B” value is reported as “inhibited”. Besides, in the test on LS174T CRC xenografts, the tumor growth entry is listed as “inhibited tumor growth”. Besides, on JMJD1A (KDM3A), the “enzymatic activity of KDM3A” value is listed as “inhibited”.

Take `Clc1ccc(N/N=C(\c2ccccc2)c2ccccn2)nc1` [JIB-04]: the “% Inhibition” value on JMJD1A (KDM3A) (Reference inhibitor) worked out at 100%.

Regarding `Oc1c(I)cc(Cl)c2cccnc12` [clioquinol], the “enzymatic activity of KDM3B” value at KDM3B is listed as “inhibited”. In addition, in the test on LS174T CRC xenografts, the tumor growth result is reported as “inhibited tumor growth”. Also, the “enzymatic activity of KDM3A” value on JMJD1A (KDM3A) was “inhibited”.

Take `CC(C)C(=O)NC(c1ccco1)c1ccc2cccnc2c1O` (centres unmarked) [SD70, reference compound]: the “Percent inhibition at 1 μM” value with Wnt signaling (1 µM) was 53.8%; in the test with Wnt signaling (listed as VMS-7-175, 1 µM), 49.7%.

On to `CC(=O)NC(c1ccc(N(C)C)cc1)c1cc(Cl)c2cccnc2c1O` (centres unmarked) [58D8], for which the inhibition with Wnt signaling (setting [1]) amounted to 90%.

`CCCC(=O)NC(c1ccco1)c1cc(Cl)c2cccnc2c1O` (centres unmarked) [48M1] showed an inhibition in the test with Wnt signaling (setting [1]) of 82%.
